One series can be described thus: Log P by HPLC on reversed phase columns (EEC directive 79/831 Annex V.A8). In kind it is physicochemical. The conditions noted are these: LogP method [a]; compounds of formula (I), Table 1.1. Summed up:
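Reversed-phase HPLC per EEC 79/831 Annex V.A8, LC-UV with 10→95% acetonitrile linear gradient; eluent [a] 0.1% formic acid (acidic), [b] 0.001 M ammonium acetate (neutral), [c] 0.1% phosphoric acid (acidic). Calibrated with C3–C16 straight-chain alkan-2-ones, linear interpolation of retention times; multiple values joined by "+".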
As for `COC(=O)C1(NC(=O)c2sc(C(F)F)c(Br)c2Br)CC1` [1.0512], the LogP was 2.79^[a].

Take `CCOC(=O)C(NC(=O)c1cc(C#N)c(Br)s1)C(C)C` (stereo not drawn) [1.0403]: the LogP was 3.22^[a].

With `COC(=O)C(C)(C)NC(=O)c1sc(C(F)F)c(Br)c1Br` [1.0513], the LogP is 3.32^[a].

`COC(=O)CNC(=O)c1sc(Cl)c(Cl)c1C(F)F` [1.0415]: the LogP was 2.61^[a].

Regarding `COC(=O)[C@H](CSC(=O)N(C)C)NC(=O)c1sc(Cl)c(Cl)c1Br` [1.0529], the LogP is 3.58^[a].

For `COC(=O)CNC(=O)c1sc(Br)c(C#N)c1Br` [1.0406], the LogP was 2.22^[a].

The series is the same for the next values; noted with them: method [a].
`N#Cc1sc(C(=O)NC2(C(=O)OC3CCC3)CC2)c(Cl)c1Cl` [1.0581]: the LogP is 3.30^[a].

As to `CCOC(=O)C(Cc1ccccc1)NC(=O)c1sc(Cl)c(Br)c1Br` (stereo not drawn) [1.0217], the LogP was 5.04^[a].

Take `O=C(O)CNC(=O)c1cc(Br)c(Cl)s1` [1.0248]: the LogP was 1.81^[a].

For the compound `CCNC(=O)SCC(NC(=O)c1sc(Br)c(Br)c1Cl)C(=O)OC` (stereo not drawn) [1.0536], the LogP was 3.38^[a].

As for `CCOC(=O)C1(NC(=O)c2sc(Cl)c(Br)c2Br)CCC1` [1.0212], the LogP was 4.24^[a].

For the compound `COC(=O)[C@H](Cc1ccccc1)NC(=O)c1sc(Br)c(Br)c1F` [1.0155], the LogP is 4.12^[a].

`CC(C)OC(=O)C1(NC(=O)c2sc(Br)c(Br)c2Cl)CCC1` [1.0616]: the LogP was 4.71^[a].

For `CCCOC(=O)C1(NC(=O)c2sc(Cl)c(Br)c2Cl)CC1` [1.0596], the LogP was 3.98^[a].

Turning to `COC(=O)C(NC(=O)c1sc(Br)c(Br)c1I)C1CC1` (stereo not drawn) [1.0262], the LogP was 3.81^[a].

`CCCOC(=O)C1(NC(=O)c2sc(C#N)c(Cl)c2Cl)CC1` [1.0580]: the LogP is 3.15^[a].

On to `CCOC(=O)C(CSC(C)=O)NC(=O)c1sc(Br)c(Br)c1Cl` (stereo not drawn) [1.0561], for which the LogP was 3.44^[a].

Consider `COC(=O)C(NC(=O)c1cc(Cl)c(Br)s1)C1CC1` (stereo not drawn) [1.0259], for which the LogP was 3.01^[a].

Consider `COC(=O)C1(NC(=O)c2sc(Br)c(Br)c2C#N)CCC1` [1.0806], for which the LogP was 2.87^[a].

Regarding `COC(=O)CNC(=O)c1sc(Cl)c(Br)c1F` [1.0635], the LogP was 2.49^[a].

Consider `CCOC(=O)C1(NC(=O)c2sc(Br)c(Cl)c2Cl)CCC1` [1.0199], for which the LogP was 4.26^[a].

For the compound `O=C(NC1(C(=O)OCC2CC2)CCC1)c1sc(Br)c(Br)c1Cl` [1.0887], the LogP is 4.81^[a].

Turning to `COC(=O)C1(NC(=O)c2sc(Br)c(Cl)c2C)CC1` [1.0163], the LogP was 2.76^[a].

With `CCOC(=O)C(CCSC)NC(=O)c1sc(Cl)c(Br)c1Cl` (stereo not drawn) [1.0186], the LogP is 4.47^[a].

As for `CCOC(=O)[C@H](CO)NC(=O)c1sc(Cl)c(Br)c1C` [1.0842], the LogP was 2.62^[a].

Regarding `COC(=O)C[C@H](NC(=O)c1sc(Br)c(Br)c1Cl)C(=O)OC` [1.0546], the LogP is 3.33^[a].

Turning to `CCOC(=O)CNC(=O)c1sc(I)c(Cl)c1Cl` [1.0827], the LogP is 3.24^[a].

Take `CCOC(=O)CNC(=O)c1sc(Cl)c(Br)c1F` [1.0634]: the LogP was 2.88^[a].

Take `CCCCOC(=O)C1(NC(=O)c2sc(Cl)c(Cl)c2Br)CCC1` [1.0890]: the LogP is 5.20^[a].

Consider `COC(=O)C(NC(=O)c1sc(Cl)c(Cl)c1I)C1CC1` (stereo not drawn) [1.0190], for which the LogP is 3.84^[a].

For `CNC(=S)SC[C@H](NC(=O)c1sc(Br)c(Br)c1F)C(=O)OC` [1.0534], the LogP is 3.24^[a].

Consider `COC(=O)C(NC(=O)c1sc(C#N)c(Cl)c1Cl)C1CC1` (stereo not drawn) [1.0576], for which the LogP is 3.05^[a].

As for `CCOC(=O)C(CCSC)NC(=O)c1sc(Cl)c(Cl)c1C#N` (stereo not drawn) [1.0814], the LogP is 3.46^[a].

In the case of `CCCOC(=O)C1(NC(=O)c2sc(C#N)c(Br)c2Cl)CC1` [1.0567], the LogP was 3.18^[a].

Still in this series, the particulars now being: method [a]: LC-UV, acidic range, 0.1% formic acid in water and acetonitrile.
With `CCOC(=O)c1sc(Cl)c(C)c1Cl` [II.073], the LogP was 4.59^[a].

On to `CC(C)COC(=O)c1cc(Cl)c(Br)s1` [II.050], for which the LogP is 5.28^[a].

With `O=C(N[C@H]1CCCNC1=O)c1sc(Br)c(Br)c1F` [I.0950], the LogP was 2.05^[a].

As for `COC(=O)c1sc(Br)c(C#N)c1Cl` [II.021], the LogP is 2.87^[a].

For the compound `O=C(O)c1sc(Cl)c(Br)c1Br` [II.011], the LogP is 2.57^[a].

For the compound `N#Cc1c(Cl)sc(C(=O)O)c1Br` [II.098], the LogP is 1.68^[a].

For `CCOC(=O)c1sc(C#N)c(Cl)c1Br` [II.092], the LogP was 3.56^[a].

Turning to `CCOC(=O)c1sc(Cl)c(Br)c1F` [II.067], the LogP is 4.08^[a].

For `CC[C@H](C)[C@H](NC(=O)c1sc(Br)c(Cl)c1C)C(=O)OC` [I.0322], the LogP was 4.25^[a].

Still in this series, the particulars now being: method [a]; compounds of formula (I), Table 1.1.
Regarding `COC(=O)C1(NC(=O)c2sc(Br)c(Br)c2F)CCOC1` (racemic) [1.0009], the LogP is 2.76^[a].

For `CCOC(=O)C(NC(=O)c1sc(Br)c(I)c1C)C(C)C` (stereo not drawn) [1.0091], the LogP was 4.37^[a].

Regarding `COC(=O)C(CC(F)F)NC(=O)c1sc(I)c(Br)c1C` (stereo not drawn) [1.0101], the LogP is 3.33^[a].

Take `CCOC(=O)C1(NC(=O)c2sc(Br)c(I)c2C)CCC1` [1.0090]: the LogP is 3.77^[a].

With `COC(=O)C(CC(F)F)NC(=O)c1sc(Cl)c(Cl)c1Br` (stereo not drawn) [1.0086], the LogP was 3.60^[a].

Regarding `CCOC(=O)C(COC)NC(=O)c1sc(Cl)c(Br)c1C` (stereo not drawn) [1.0125], the LogP is 3.44^[a].

For the compound `CCOC(=O)C(NC(=O)c1cc(C)c(Cl)s1)C(C)C` (racemic) [1.0002], the LogP is 3.48^[a].

Consider `COC(=O)C(Cc1c[nH]cn1)NC(=O)c1sc(Cl)c(Br)c1C` (stereo not drawn) [1.0124], for which the LogP is 1.48^[a].

The series is the same for the next values; noted with them: method marked [a].
Regarding `CCOC(=O)C(NC(=O)c1sc(Br)c(Br)c1C(F)(F)F)C(C)C` (stereo not drawn) [1.0373], the LogP was 4.09^[a].

With `COC(=O)C(NC(=O)c1cc(Cl)c(C#N)s1)C1CC1` (stereo not drawn) [1.0388], the LogP is 2.50^[a].

On to `COC(=O)C(CCSC)NC(=O)c1sc(C#N)c(Br)c1Br` (stereo not drawn) [1.0733], for which the LogP is 3.23^[a].

With `Cc1c(C(=O)NC2(C(=O)OC3CCC3)CCC2)sc(Br)c1Cl` [1.0705], the LogP was 4.33^[a].

In the case of `N#CCNC(=O)c1sc(F)c(Br)c1Br` [1.0714], the LogP is 2.39^[a].

Take `COC(=O)[C@H](CCSC)NC(=O)c1sc(C#N)c(Br)c1Br` [1.0734]: the LogP was 3.40^[a].

As to `CCOC(=O)C(CCSC)NC(=O)c1sc(Cl)c(Cl)c1F` (stereo not drawn) [1.0351], the LogP is 3.95^[a].

Take `COC(=O)C1(NC(=O)c2sc(F)c(Br)c2Br)CC1` [1.0707]: the LogP is 2.76^[a].

Consider `CCOC(=O)C(NC(=O)c1sc(C#N)c(Cl)c1Br)C(C)C` (stereo not drawn) [1.0669], for which the LogP is 3.90^[a].

For `CCOC(=O)C(Cc1ccccc1)NC(=O)c1cc(C#N)c(Cl)s1` (stereo not drawn) [1.0384], the LogP was 3.47^[a].

Regarding `CCOC(=O)C(Cc1ccccc1)NC(=O)c1sc(C#N)c(Cl)c1C` (stereo not drawn) [1.0306], the LogP was 3.77^[a].

For the compound `CCOC(=O)C(CO)NC(=O)c1sc(C#N)c(Br)c1Br` (stereo not drawn) [1.0731], the LogP is 2.62^[a].

With `CCOC(=O)C(Cc1ccccc1)NC(=O)c1sc(Cl)c(C#N)c1Br` (stereo not drawn) [1.0660], the LogP is 4.09^[a].

With `COC(=O)CNC(=O)c1sc(Br)c(Br)c1C(F)(F)F` [1.0366], the LogP was 2.71^[a].

As to `CCOC(=O)CNC(=O)c1sc(C#N)c(Cl)c1Br` [1.0664], the LogP was 2.64^[a].

With `O=C(NC1(C(=O)O)CC1)c1sc(Cl)c(Br)c1Cl` [1.0324], the LogP is 2.41^[a].

With `CCOC(=O)C1(NC(=O)c2cc(Br)c(F)s2)CC1` [1.0312], the LogP was 2.57^[a].

`CCOC(=O)CNC(=O)c1cc(Br)c(C(F)(F)F)s1` [1.0715]: the LogP is 3.00^[a].

Turning to `CCOC(=O)C1(NC(=S)c2sc(Cl)c(Br)c2Cl)CC1` [1.0325], the LogP is 4.55^[a].

Take `COC(=O)C(C)(C)NC(=O)c1cc(Br)c(C(F)(F)F)s1` [1.0718]: the LogP is 3.23^[a].

Consider `O=C(NC(C(=O)O)C1CC1)c1sc(Cl)c(Cl)c1Br` (stereo not drawn) [1.0287], for which the LogP was 2.95^[a].

Staying with this series, now noted: method marker [a] given with each value; Table 1.1, compounds of formula (I).
For the compound `COC(=O)C(C)(C)NC(=O)c1sc(Cl)c(Br)c1Cl` [1.1019], the LogP is 3.73^[a].

`C#CCOC(=O)CNC(=O)c1sc(Br)c(Br)c1Cl` [1.0959]: the LogP was 3.20^[a].

Take `CCOC(=O)CN(C(=O)c1sc(Br)c(Br)c1Cl)C1CC1` [1.0935]: the LogP is 3.81^[a].

As for `COC(=O)C(NC(=O)c1sc(Br)c(Br)c1F)c1cccs1` (racemic) [1.0953], the LogP was 3.84^[a].

For `CCOC(=O)C(NC(=O)c1sc(Br)c(Br)c1Cl)C1CC1` (stereo not drawn) [1.0991], the LogP was 4.34^[a].

Consider `C[Si](C)(C)COC(=O)CNC(=O)c1sc(Br)c(Br)c1F` [1.1027], for which the LogP is 4.40^[a].

In the case of `Cc1c(C(=O)NCC(=O)OCc2ccccc2)sc(C#N)c1Br` [1.0973], the LogP is 3.26^[a].

For the compound `CCCCOC(=O)C1(NC(=O)c2sc(C#N)c(Br)c2C)CC1` [1.0969], the LogP was 3.36^[a].

As to `COC(=O)C(CCSC)NC(=O)c1sc(Br)c(Br)c1C(F)F` (stereo not drawn) [1.1065], the LogP is 3.55^[a].

On to `CCSC(=O)C(NC(=O)c1sc(Br)c(Br)c1Cl)C(C)C` (stereo not drawn) [1.0998], for which the LogP is 5.45^[a].

The series is the same for the next values; noted with them: reversed phase HPLC columns, value in preparation example, method not marked.
In the case of `CCOC(=O)CNC(=O)c1sc(C)c(Cl)c1F` [I.0793, ethyl N-[(4-chloro-3-fluoro-5-methyl-2-thienyl)carbonyl]glycinate], the chromatographic logP (in general, a lipophilicity value derived from retention on a column) came out at 2.54.

In turn, `CCOC(=O)[C@H](CC(C)C)NC(=O)c1sc(Cl)c(Cl)c1C#N` [I.0279, ethyl N-[(4,5-dichloro-3-cyano-2-thienyl)carbonyl]leucinate] had a chromatographic logP of 4.05.

(Values after patent publication US12642270B2, “Substituted thiophene carboxamides, thiophene carboxylic acids and derivatives thereof” (Bayer Aktiengesellschaft, priority 2019, dated 2026).)
